Assay [1] deals with T1, RNR (RNR1:RNR2 1:1) (Homo sapiens, UniProt P23921+P31350).
T1 sequence (P23921 1-792): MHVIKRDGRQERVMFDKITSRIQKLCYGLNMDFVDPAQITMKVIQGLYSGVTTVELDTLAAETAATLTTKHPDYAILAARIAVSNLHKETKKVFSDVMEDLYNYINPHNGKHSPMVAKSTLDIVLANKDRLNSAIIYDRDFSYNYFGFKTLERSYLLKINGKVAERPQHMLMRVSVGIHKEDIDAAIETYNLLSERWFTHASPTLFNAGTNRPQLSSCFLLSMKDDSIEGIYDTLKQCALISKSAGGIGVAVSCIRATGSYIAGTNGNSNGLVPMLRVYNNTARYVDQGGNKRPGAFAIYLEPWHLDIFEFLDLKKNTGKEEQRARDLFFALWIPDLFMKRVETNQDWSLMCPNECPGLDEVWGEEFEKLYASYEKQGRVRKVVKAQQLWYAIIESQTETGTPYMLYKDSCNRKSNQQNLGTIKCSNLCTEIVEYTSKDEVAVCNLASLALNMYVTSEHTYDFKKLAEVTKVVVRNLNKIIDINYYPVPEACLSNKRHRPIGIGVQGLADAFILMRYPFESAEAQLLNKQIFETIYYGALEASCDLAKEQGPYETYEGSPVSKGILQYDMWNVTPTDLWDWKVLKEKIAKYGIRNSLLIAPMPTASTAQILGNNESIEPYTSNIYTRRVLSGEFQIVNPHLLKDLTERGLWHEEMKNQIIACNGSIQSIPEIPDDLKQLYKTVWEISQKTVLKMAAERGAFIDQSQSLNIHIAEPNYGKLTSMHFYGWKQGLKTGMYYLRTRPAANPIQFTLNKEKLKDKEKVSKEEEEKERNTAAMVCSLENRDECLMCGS
T1 sequence (P31350 1-389): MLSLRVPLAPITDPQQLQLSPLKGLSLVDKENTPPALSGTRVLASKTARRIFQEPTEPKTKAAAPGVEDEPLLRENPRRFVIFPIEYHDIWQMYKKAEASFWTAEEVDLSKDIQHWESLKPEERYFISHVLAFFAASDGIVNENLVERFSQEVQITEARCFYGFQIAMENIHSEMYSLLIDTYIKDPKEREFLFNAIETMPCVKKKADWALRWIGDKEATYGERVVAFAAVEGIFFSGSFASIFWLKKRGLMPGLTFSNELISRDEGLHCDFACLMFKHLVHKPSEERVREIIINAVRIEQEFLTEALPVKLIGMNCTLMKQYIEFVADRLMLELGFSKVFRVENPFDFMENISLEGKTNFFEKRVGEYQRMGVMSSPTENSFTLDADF
Put plainly: RNR enzyme activity, rapid-fire mass spectrometry (RF/MS) assay. The assay is classed as biochemical. As to conditions: RNR 50 nM, 1:1 (RNR1:RNR2); CDP 5 μM; ATP 1 mM; 37° C., 45 min; compounds screened up to 50 μM. The protocol: A rapid-fire mass spectrometry (RF/MS) assay was used to assess RNR enzyme activity using a 384 well plate and a robotic platform.
The plate layout included two validated reference compounds (Triapine (3-AP) and Hydroxyurea (HU)): • A dose response in duplicate, top concentration: 5 μM (3-AP) and 250 μM (HU), semi-log • dilutions. • Spike wells in triplicate randomly spotted at four concentrations: • 250 μM, 100 μM, 30 μM and 2 μM for HU • 5 μM, 2 μM, 0.6 μM and 0.04 μM for 3-AP
First, the multidrop pipes were saturated for 30 minutes with enzymatic solution. Then 30 μL of Stop solution was distributed in column 24. Next, 15 μL of enzyme was distributed in column 1 to 24. Next, a pre-incubation step of 15 minutes at room temperature occurred, followed by distribution of 15 μL of substrate solution (column 1 to 24). Next, the plate was incubated for 45 minutes at 37° C. 30 μL of Stop solution was distributed to columns 1 to 23.
The final parameters for the enzyme reactions were: • Incubation: 37° C., 45 min • [CDP]: 5 μM: [ATP]: 1 mM; [NADPH]: No • [RNR]final: 50 nM with 1:1 (RNR1:RNR2) ratio • Final volume: 30 μL • Stop solution: 6% HCOOH containing 2 μM of 15

Assay [2] concerns pCHK1 (S345) in Colo320 DM cells. Put plainly: Alphalisa assay, detection of pCHK1 (S345) in Colo320 DM cells. The assay is classed as cell-based. The note with it: Homo sapiens, COLO 320DM, compound incubation overnight (approximately 16 hours). The protocol: Colo320 DM cells (ATCC #CCL-220, derived from human colorectal adenocarcinoma, Dukes' type C) were seeded on a 96-well, cell culture treated assay plate at a density of 50,000 cells/well in 200 μL of RPMI-1640 media supplemented with 10% Fetal Bovine Serum and incubated at 37° C. overnight. The following day, test compound dilutions were added directly to the plated cells by a Tecan digital dispenser to a final DMSO concentration of <0.5%, and incubated at 37° C. overnight (approximately 16 hours). The following day all cull culture media was removed from the cells. 75 μL of 1× AlphaLisa lysis buffer was added to each well and plates were agitated on a shaker for 30 minutes at room temperature. The lysis of cells and detection of pCHK1 (S345) were performed with regents contained within the AlphaLisa Sure Fire assay kit (Perkin Elmer #ALSU-PCHK1-A) according to the manufacturer's instructions. 10 μL of each lysate was then transferred to a white, 384-well assay plate (Perkin Elmer #6008280), 5 μL of Acceptor mix was then added to each well of lysate in the white, 384-well assay plate and incubated in the dark at room temperature for 60 minutes. 5 μL of Donor mix was then added to each well of the white, 384-well assay plate in subdued light and incubated at room temperature for 60 minutes. Plates were read on an Alpha Technology-compatible plate reader using standard AlphaLisa settings.
In general terms: Alpha assays give light when donor and acceptor beads are brought close together.

Molecules are shown by their SMILES.

By IC50 is commonly meant the concentration that inhibits the measured activity by half. `O=S(=O)(c1ccc2cc[nH]c2c1)N1CC2CN(c3ccc(O)cc3)CCC21` (stereo not shown) [compound 51, 4-(7-((1H-indol-6-yl)sulfonyl)-3,7-diazabicyclo[4.2.0]octan-3-yl)phenol]: the half-inhibitory concentration (IC50) was 100 to 500 nM in assay [1] and 5 to 10 µM in assay [2].
As to `CN(c1ccc(O)cc1)C1CN(S(=O)(=O)c2ccc3ccn(C)c3c2)C1` [compound 23, 4-(methyl(1-((1-methyl-1H-indol-6-yl)sulfonyl)azetidin-3-yl)amino)phenol], the values for the IC50 in assay [1] and in assay [2] were not above 50 nM and 1 to 5 µM, respectively.
`O=S(=O)(c1ccc2cc[nH]c2c1)N1CCC(Oc2ccc(O)cc2)C1` (stereo not shown) [compound 40, 4-((1-((1H-indol-6-yl)sulfonyl)pyrrolidin-3-yl)oxy)phenol]: the results for the IC50 in assay [1] and in assay [2] were not above 50 nM and not above 1 µM, respectively.
Taken in the same sequence, the figures for `O=S(=O)(c1ccc2cc[nH]c2c1)N1C[C@H]2CCC[C@@H](C1)N2c1ccc(O)cc1` [compound 28, 4-((1R,5S)-3-((1H-indol-6-yl)sulfonyl)-3,9-diazabicyclo[3.3.1]nonan-9-yl)phenol] were not above 50 nM and 1 to 5 µM.
For `CCN(c1ccc(O)cc1)C1CN(S(=O)(=O)c2ccc3cc[nH]c3c2)C1` [compound 25, 4-((1-((1H-indol-6-yl)sulfonyl)azetidin-3-yl)(ethyl)amino)phenol], in that order: not above 50 nM and not above 1 µM.
Consider `Cn1ccc2cc(S(=O)(=O)N3CCN(c4ccc(O)cc4)CC3)cnc21` [compound 6, 4-(4-((1-methyl-1H-pyrrolo[2,3-b]pyridin-5-yl)sulfonyl)piperazin-1-yl)phenol], for which the IC50 in assay [1] is 100 to 500 nM; in assay [2], 10 to 50 µM.
Take `O=S(=O)(c1cccc2cc[nH]c12)N1CCN(c2ccc(O)cc2)CC1` [compound 5, 4-(4-((1H-indol-7-yl)sulfonyl)piperazin-1-yl)phenol]: the figures for the IC50 in assay [1] and in assay [2] were 100 to 500 nM and 1 to 5 µM, respectively.
For `Cn1ccc2cc(S(=O)(=O)N3CCN(c4ccc(O)cc4)CC3)ccc21` [compound 4, 4-(4-((1-methyl-1H-indol-5-yl)sulfonyl)piperazin-1-yl)phenol], the figures for the IC50 in assay [1] and in assay [2] were 100 to 500 nM and 5 to 10 µM, respectively.
For `C[C@@H]1CN(S(=O)(=O)c2ccc3cc[nH]c3c2)C[C@H]1N(C)c1ccc(O)cc1` (racemic) [compound 39, rac-4-(((3R,4S)-1-((1H-indol-6-yl)sulfonyl)-4-methylpyrrolidin-3-yl)(methyl)amino)phenol], in that order: not above 50 nM and 1 to 5 µM.
Taken in the same sequence, the figures for `CN(c1ccc(O)cc1)C1CCN(S(=O)(=O)c2ccc3[nH]ccc3c2)C1` (racemic) [compound 30, rac-(R)-4-((1-((1H-indol-5-yl)sulfonyl)pyrrolidin-3-yl)(methyl)amino)phenol] were not above 50 nM and not above 1 µM.
Consider `O=S(=O)(c1cccc2[nH]ccc12)N1CCN(c2ccc(O)cc2)CC1` [compound 7, 4-(4-((1H-indol-4-yl)sulfonyl)piperazin-1-yl)phenol], for which the IC50 in assay [1] lay in the range of 50 to 100 nM; in assay [2], 1 to 5 µM.
Taken in the same sequence, the figures for `Cn1ccc2ccc(S(=O)(=O)N3CCN(c4ccc(O)cc4)CC3)cc21` [compound 3, 4-(4-((1-methyl-1H-indol-6-yl)sulfonyl)piperazin-1-yl)phenol] were 100 to 500 nM and 5 to 10 µM.
Taken in the same sequence, the figures for `C[C@@H]1CN(c2ccc(O)cc2)CCN1S(=O)(=O)c1ccc2cc[nH]c2c1` [compound 21, (R)-4-(4-((1H-indol-6-yl)sulfonyl)-3-methylpiperazin-1-yl)phenol] were not above 50 nM and 1 to 5 µM.
For `O=S(=O)(c1ccc2cc[nH]c2c1)N1CC(O)C(Nc2ccc(O)cc2)C1` (stereo not shown) [compound 44, 1-((1H-indol-6-yl)sulfonyl)-4-((4-hydroxyphenyl)amino) pyrrolidin-3-ol], in that order: 50 to 100 nM and 5 to 10 µM.
As to `Cn1ccc2cccc(S(=O)(=O)N3CCN(c4ccc(O)cc4)CC3)c21` [compound 1, 4-(4-((1-methyl-1H-indol-7-yl)sulfonyl)piperazin-1-yl)phenol], the IC50 in assay [1] is not above 50 nM; in assay [2] it was 5 to 10 µM.
For `O=S(=O)(c1ccc2cc[nH]c2c1)N1CCC(Oc2ccc(O)cc2)CC1` [compound 43, 4-((1-((1H-indol-6-yl)sulfonyl)piperidin-4-yl)oxy)phenol], the IC50 was not above 50 nM in assay [1] and 1 to 5 µM in assay [2].
As to `CN(c1ccc(O)cc1)C1CN(S(=O)(=O)c2cccc3[nH]ccc23)C1` [compound 24, 4-((1-((1H-indol-4-yl)sulfonyl)azetidin-3-yl)(methyl)amino)phenol], the values for the IC50 in assay [1] and in assay [2] were 50 to 100 nM and 1 to 5 µM, respectively.
For the molecule `CN(c1ccc(O)cc1)C1CN(S(=O)(=O)c2ccc3cn[nH]c3c2)C1` [compound 18, 4-((1-((1H-indazol-6-yl)sulfonyl)azetidin-3-yl)(methyl)amino)phenol], the IC50 was in the range of 100 to 500 nM in assay [1] and 10 to 50 µM in assay [2].
For `O=S(=O)(NC1CN(c2ccc(O)cc2)C1)c1ccc2cc[nH]c2c1` [compound 10, N-(1-(4-hydroxyphenyl)azetidin-3-yl)-1H-indole-6-sulfonamide], in that order: 50 to 100 nM and 1 to 5 µM.
Taken in the same sequence, the figures for `CN(CC1CN(S(=O)(=O)c2ccc3cc[nH]c3c2)C1)c1ccc(O)cc1` [compound 29, 4-(((1-((1H-indol-6-yl)sulfonyl)azetidin-3-yl)methyl)(methyl)amino) phenol] were not above 50 nM and 5 to 10 µM.
For `O=S(=O)(c1ccc2cc[nH]c2c1)N1CCCN(c2ccc(O)cc2)CC1` [compound 14, 4-(4-((1H-indol-6-yl)sulfonyl)-1,4-diazepan-1-yl)phenol], in that order: not above 50 nM and 5 to 10 µM.
On to `CN(CC1CCN1S(=O)(=O)c1ccc2cc[nH]c2c1)c1ccc(O)cc1` (stereo not shown) [compound 45, 4-(((1-((1H-indol-6-yl)sulfonyl)azetidin-2-yl)methyl)(methyl)amino) phenol], for which the IC50 was 50 to 100 nM in assay [1] and 5 to 10 µM in assay [2].
Consider `CN(c1ccc(O)cc1)C1CN(S(=O)(=O)c2ccc3[nH]ccc3c2)C1` [compound 27, 4-((1-((1H-indol-5-yl)sulfonyl)azetidin-3-yl)(methyl)amino)phenol], for which the IC50 in assay [1] was not above 50 nM; in assay [2] it was not above 1 µM.

The record behind these values is patent publication US20240285614A1, “PHENOL RIBONUCLEOTIDE REDUCTASE (RNR) INHIBITORS AND USES THEREOF” (Boundless Bio, Inc., priority 2023, published 2024).
